According to ChEMBL document CHEMBL2424597, “Diarylheptanoids with inhibitory effects on melanogenesis from the rhizomes of Curcuma comosa in B16 melanoma cells” (Bioorg Med Chem Lett, 2013):
Each block holds one compound with its values, some of them ahead of it.

What was measured:
[1] = Cytotoxicity against mouse B16-4A5 cells assessed as cell viability at 3 uM after 70 hrs by WST-8 assay in presence of theophylline; format: cell-based; settings: read-out: Activity
[2] = Antimelanogenic activity in mouse B16-4A5 cells assessed as inhibition of theophylline-induced melanin production at 10 uM after 72 hrs by spectrophotometry relative to control; format: functional; settings: B16-4A5, 72 h
[3] = Antimelanogenic activity in mouse B16-4A5 cells assessed as inhibition of theophylline-induced melanin production at 3 uM after 72 hrs by spectrophotometry relative to control; format: functional; settings: B16-4A5, 72 h
[4] = Cytotoxicity against mouse B16-4A5 cells assessed as cell viability at 10 uM after 70 hrs by WST-8 assay in presence of theophylline; format: cell-based; settings: read-out: Activity
[5] = Antimelanogenic activity in mouse B16-4A5 cells assessed as inhibition of theophylline-induced melanin production at 1 uM after 72 hrs by spectrophotometry relative to control; format: functional; settings: B16-4A5, 72 h
[6] = target: T1, Tyrosinase (Agaricus bisporus) (UniProt O42713); assay: Inhibition of mushroom tyrosinase at 10 uM
T1 sequence (whole entry): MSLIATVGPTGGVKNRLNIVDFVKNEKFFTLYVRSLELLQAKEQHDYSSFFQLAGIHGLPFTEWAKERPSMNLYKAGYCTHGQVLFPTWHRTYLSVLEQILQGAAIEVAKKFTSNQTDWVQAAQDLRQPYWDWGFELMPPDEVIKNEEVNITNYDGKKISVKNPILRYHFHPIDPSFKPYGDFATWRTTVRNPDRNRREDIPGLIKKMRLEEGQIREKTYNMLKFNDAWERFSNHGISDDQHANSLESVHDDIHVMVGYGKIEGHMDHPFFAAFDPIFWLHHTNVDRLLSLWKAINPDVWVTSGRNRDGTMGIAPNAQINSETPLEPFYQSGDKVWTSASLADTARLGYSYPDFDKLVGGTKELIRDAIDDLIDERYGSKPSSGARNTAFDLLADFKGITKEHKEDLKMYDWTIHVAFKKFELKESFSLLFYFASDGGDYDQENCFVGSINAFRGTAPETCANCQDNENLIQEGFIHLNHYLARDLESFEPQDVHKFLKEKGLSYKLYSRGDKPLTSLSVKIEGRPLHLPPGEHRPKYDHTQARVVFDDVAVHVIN

[7] = Antimelanogenic activity in mouse B16-4A5 cells assessed as inhibition of theophylline-induced melanin production at 0.3 uM after 72 hrs by spectrophotometry relative to control; format: functional; settings: B16-4A5, 72 h
[8] = Antimelanogenic activity in mouse B16-4A5 cells assessed as inhibition of theophylline-induced melanin production at 0.1 uM after 72 hrs by spectrophotometry relative to control; format: functional; settings: B16-4A5, 72 h
[9] = Antimelanogenic activity in mouse B16-4A5 cells assessed as inhibition of theophylline-induced melanin production after 72 hrs by spectrophotometry relative to control; format: functional, cell-based; settings: B16-4A5, 72 h

inhibition [6]: < 17%
Compound: CC(=O)O[C@H](CCc1ccc(O)c(O)c1)C[C@H](O)CCc1ccc(O)c(O)c1
viability at 70 h, 3 µM [1]: 95.2% | inhibition at 10 µM [2]: 5.5% | inhibition at 3 µM [3]: 4.5% | viability at 70 h, 10 µM [4]: 92.3% | inhibition at 1 µM [5]: -5.7% | inhibition at 0.3 µM [7]: -9.9% | inhibition at 0.1 µM [8]: -1.6%

inhibition [6]: < 17%
Compound: Oc1ccc(CC[C@H](O)C[C@H](O)CCc2ccc(O)c(O)c2)cc1
viability at 70 h, 3 µM [1]: > 91.9% | inhibition at 3 µM [3]: -23.7% | viability at 70 h, 10 µM [4]: 71.6% | inhibition at 1 µM [5]: -10.9% | inhibition at 0.3 µM [7]: -3.7% | inhibition at 0.1 µM [8]: -0.7%

inhibition [6]: 25.5% | IC50 [9]: 360 nM
Compound: Oc1ccc(/C=C/CC[C@@H](O)CCc2ccc(O)cc2)cc1
viability at 70 h, 3 µM [1]: 95.2% | inhibition at 10 µM [2]: 90.5% | inhibition at 3 µM [3]: 79.3% | viability at 70 h, 10 µM [4]: 93% | inhibition at 1 µM [5]: 67.3% | inhibition at 0.3 µM [7]: 47.5% | inhibition at 0.1 µM [8]: 27.7%

inhibition [6]: 34.3% | IC50 [9]: 1990 nM
Compound: O=C(/C=C/C=C/c1ccc(O)cc1)CCc1ccc(O)cc1
viability at 70 h, 3 µM [1]: 95.2% | inhibition at 10 µM [2]: 68.4% | inhibition at 3 µM [3]: 41.9% | viability at 70 h, 10 µM [4]: 92.3% | inhibition at 1 µM [5]: 53.4% | inhibition at 0.3 µM [7]: 31.7% | inhibition at 0.1 µM [8]: 25.4%

inhibition [6]: < 17%
Compound: Oc1ccc(CC[C@@H](O)C[C@H](O)CCc2ccc(O)c(O)c2)cc1
viability at 70 h, 3 µM [1]: 95.2% | inhibition at 10 µM [2]: -18.9% | inhibition at 3 µM [3]: 0.1% | viability at 70 h, 10 µM [4]: 92.3% | inhibition at 1 µM [5]: -22.7% | inhibition at 0.3 µM [7]: 8.9% | inhibition at 0.1 µM [8]: 7%

inhibition [6]: < 17% | IC50 [9]: 1240 nM
Compound: O=C(CC/C=C/c1ccc(O)cc1)CCc1ccc(O)cc1
viability at 70 h, 3 µM [1]: > 91.9% | inhibition at 10 µM [2]: 57.1% | inhibition at 3 µM [3]: 61.4% | viability at 70 h, 10 µM [4]: 71.6% | inhibition at 1 µM [5]: 44.9% | inhibition at 0.3 µM [7]: 29.9% | inhibition at 0.1 µM [8]: 21.2%

inhibition [6]: < 17% | IC50 [9]: > 10000 nM
Compound: CC(=O)O[C@H](CCc1ccc(O)cc1)C[C@@H](CCc1ccc(O)c(O)c1)OC(C)=O
viability at 70 h, 3 µM [1]: 95.2% | inhibition at 10 µM [2]: 27.3% | inhibition at 3 µM [3]: 7.3% | viability at 70 h, 10 µM [4]: 92.3% | inhibition at 1 µM [5]: 8.1% | inhibition at 0.3 µM [7]: 6.3% | inhibition at 0.1 µM [8]: 3.6%

More lines, now with the values behind:

Compound: O=C(/C=C/C=C/c1ccc(O)c(O)c1)CCc1ccc(O)cc1
viability at 70 h, 3 µM [1]: 95.2% | inhibition at 10 µM [2]: 16.3% | inhibition at 3 µM [3]: 23.4% | viability at 70 h, 10 µM [4]: 92.3% | inhibition at 1 µM [5]: 30.5% | inhibition [6]: < 17% | inhibition at 0.3 µM [7]: 37.8% | inhibition at 0.1 µM [8]: 27.8%

Compound: COc1cc(CC[C@@H](O)CC(=O)CCc2ccc(O)cc2)ccc1O
viability at 70 h, 3 µM [1]: 95.2% | inhibition at 10 µM [2]: -24.9% | inhibition at 3 µM [3]: 4.4% | viability at 70 h, 10 µM [4]: 92.3% | inhibition at 1 µM [5]: 16.6% | inhibition [6]: < 17% | inhibition at 0.3 µM [7]: -11.9% | inhibition at 0.1 µM [8]: 4%

Compound: COc1cc(CC[C@@H](O)CC/C=C/c2ccc(O)cc2)ccc1O
viability at 70 h, 3 µM [1]: 84.6% | inhibition at 10 µM [2]: 37.8% | inhibition at 3 µM [3]: 27.2% | viability at 70 h, 10 µM [4]: 76% | inhibition at 1 µM [5]: 28.9% | inhibition [6]: < 17% | inhibition at 0.3 µM [7]: 8.9% | IC50 [9]: > 10000 nM | inhibition at 0.1 µM [8]: 13.7%

Compound: COc1cc(CC[C@@H](O)C[C@@H](O)CCc2ccc(O)cc2)cc(OC)c1O
viability at 70 h, 3 µM [1]: 95.2% | inhibition at 10 µM [2]: 7.2% | inhibition at 3 µM [3]: 25% | viability at 70 h, 10 µM [4]: 92.3% | inhibition at 1 µM [5]: 23.1% | inhibition [6]: < 17% | inhibition at 0.3 µM [7]: 23.2% | inhibition at 0.1 µM [8]: 11.5%

Compound: Oc1ccc(CC[C@@H](O)C[C@H](O)CCc2ccc(O)cc2)cc1 [(+)-HANNOKINOL]
viability at 70 h, 3 µM [1]: 95.2% | inhibition at 10 µM [2]: 21.9% | inhibition at 3 µM [3]: 23.1% | viability at 70 h, 10 µM [4]: 92.3% | inhibition at 1 µM [5]: 15.7% | inhibition [6]: < 17% | inhibition at 0.3 µM [7]: 20.3% | IC50 [9]: > 10000 nM | inhibition at 0.1 µM [8]: 22%

Compound: CC(=O)O[C@H](CCc1ccc(O)c(O)c1)C[C@H](O)CCc1ccc(O)cc1
viability at 70 h, 3 µM [1]: 95.2% | inhibition at 10 µM [2]: 59.9% | inhibition at 3 µM [3]: 21.8% | viability at 70 h, 10 µM [4]: 92.3% | inhibition at 1 µM [5]: 27.3% | inhibition [6]: < 17% | inhibition at 0.3 µM [7]: 15.1% | IC50 [9]: 4910 nM | inhibition at 0.1 µM [8]: 15.4%

Compound: COc1cc(CC[C@H](O)C[C@H](O)CCc2cc(OC)c(O)c(OC)c2)ccc1O
viability at 70 h, 3 µM [1]: 95.2% | inhibition at 10 µM [2]: 34.4% | inhibition at 3 µM [3]: 50.3% | viability at 70 h, 10 µM [4]: 92.3% | inhibition at 1 µM [5]: 38.4% | inhibition [6]: < 17% | inhibition at 0.3 µM [7]: 43.2% | IC50 [9]: 3000 nM | inhibition at 0.1 µM [8]: 35.4%

Compound: O=C(CCc1ccc(O)cc1)C[C@@H](O)CCc1ccc(O)cc1
inhibition [6]: < 17%
